Source: US20260042753A1 (Merck Patent GmbH, priority 2019, published 2026)
Read-outs that look alike come from different tables or passages of the source.

Experiments:
[1] = target: mutant cKIT (560-576 and V654A) in GIST430/654 cell line (Homo sapiens (Human), UniProt P10721, DEL560-576/V654A); test: Cellular testing of cKIT mutant inhibitors: phospho-Y307-cKIT Luminex assay in GIST430/654 cells; type: cell-based; conditions: read-out: GIST 430/654 IC50
Method in brief: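 Autophosphorylation of mutant cKIT at Y307 was quantified by a Luminex bead sandwich assay (total-cKIT capture, phosphospecific detection) after 45 min compound exposure in GIST430/654 cells, cultured in medium containing 100 nM imatinib. Signals were normalised to solvent (0.3% DMSO) controls and dose-response curves fitted for IC50.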

[2] = target: c-Kit(V654A) (Homo sapiens, UniProt P10721, V654A); test: c-Kit(V654A) assay; type: biochemical
Method in brief: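 Radiometric filter-binding read-out: after 3% phosphoric acid stop, peptide-incorporated 33P on filtermat scintillation-counted. Enzyme: human c-Kit V654A, residues 544–end, N-terminal GST fusion.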

[3] = Table 1, cKIT autophosphorylation, compounds 45 min
[4] = Table 2, corresponding triazole derivatives

Sequence of mutant cKIT (560-576 and V654A) in GIST430/654 cell line (P10721 other isoform, or with tags, fused parts or gaps V654A/del 1-25/del 560-576 limits assumed): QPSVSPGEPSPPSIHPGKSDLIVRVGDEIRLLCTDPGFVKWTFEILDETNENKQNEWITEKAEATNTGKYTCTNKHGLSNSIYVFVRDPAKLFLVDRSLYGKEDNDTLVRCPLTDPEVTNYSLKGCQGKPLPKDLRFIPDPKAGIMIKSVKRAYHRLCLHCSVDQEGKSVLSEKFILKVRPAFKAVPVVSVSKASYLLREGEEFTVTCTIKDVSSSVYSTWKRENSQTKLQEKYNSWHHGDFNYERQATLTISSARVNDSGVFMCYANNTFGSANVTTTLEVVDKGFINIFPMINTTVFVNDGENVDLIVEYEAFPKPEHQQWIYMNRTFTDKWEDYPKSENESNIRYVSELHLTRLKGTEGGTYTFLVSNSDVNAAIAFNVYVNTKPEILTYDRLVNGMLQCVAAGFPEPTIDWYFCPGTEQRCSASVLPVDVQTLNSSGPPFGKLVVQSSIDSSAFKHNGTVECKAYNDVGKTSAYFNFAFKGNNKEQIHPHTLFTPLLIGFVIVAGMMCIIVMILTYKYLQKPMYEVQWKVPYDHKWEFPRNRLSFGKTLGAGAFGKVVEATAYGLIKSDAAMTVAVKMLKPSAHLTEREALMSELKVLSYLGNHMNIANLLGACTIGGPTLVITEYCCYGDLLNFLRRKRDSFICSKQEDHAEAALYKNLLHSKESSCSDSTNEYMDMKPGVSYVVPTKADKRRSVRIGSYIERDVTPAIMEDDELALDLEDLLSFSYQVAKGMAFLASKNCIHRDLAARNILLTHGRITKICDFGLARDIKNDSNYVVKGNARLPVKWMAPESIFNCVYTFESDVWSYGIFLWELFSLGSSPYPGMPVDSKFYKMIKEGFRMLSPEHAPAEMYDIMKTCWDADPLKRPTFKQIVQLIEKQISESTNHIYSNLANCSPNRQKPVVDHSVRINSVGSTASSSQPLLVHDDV

Compound	IC50 [1, 3] [nM]	IC50 ([2]; Table 1, 200 μM ATP) [nM]	IC50 [1, 4] [nM]	IC50 [2, 4] [nM]
COCCOc1cc2[nH]nc(-c3cc(-c4ccc(C(=O)N5CC[C@@H]5C(C)(C)O)cc4)no3)c2cc1F [A58, 2-[(2R)-1-(4-{5-[5-fluoro-6-(2-methoxyethoxy)-1H-indazol-3-yl]-1,2-oxazol-3-yl}benzoyl)azetidin-2-yl]propan-2-ol]	52	0.78		
COCCOc1ccc2c(-c3cc(-c4ccc(C(=O)N5CCC[C@@H]5C(C)(C)O)cc4)no3)n[nH]c2c1 [A2, 2-[(2R)-1-(4-{5-[6-(2-methoxyethoxy)-1H-indazol-3-yl]-1,2-oxazol-3-yl}benzoyl)pyrrolidin-2-yl]propan-2-ol]	250	4.8		
COCCOc1cc2[nH]nc(-c3cc(-c4ccc(C(=O)N5CC(C#N)C5)nc4)no3)c2cc1F [A96, 1-(5-{5-[5-fluoro-6-(2-methoxy-ethoxy)-1H-indazol-3-yl]-isoxazol-3-yl}-pyridine-2-carbonyl)-azetidine-3-carbonitrile]	740	21		
COCCOc1cc2[nH]nc(-c3cc(-c4ccc(C(=O)N5CC(c6nncn6CCOC)C5)cc4)no3)c2cc1F [A195, 5-fluoro-6-(2-methoxyethoxy)-3-[3-(4-{3-[4-(2-methoxyethyl)-4H-1,2,4-triazol-3-yl]azetidine-1-carbonyl}phenyl)-1,2-oxazol-5-yl]-1H-indazole]	710	14		
COCCOc1cc2[nH]nc(-c3cc(-c4ccc(C(=O)N5CC(N6CC7(COC7)C6)C5)cc4)no3)c2cc1F [A187, 5-fluoro-6-(2-methoxyethoxy)-3-f{3-[4-(3-f{2-oxa-6-azaspiro[3.3]heptan-6-yl}azetidine-1-carbonyl)phenyl]-1,2-oxazol-5-yl}-1H-indazole]	290	1.4		
COCCOc1cc2[nH]nc(-c3cc(-c4ccc(C(=O)N=S(C)(C)=O)cc4)no3)c2cc1F [A35, N-[dimethyl(oxo)-lambda6-sulfanylidene]-4-{5-[5-fluoro-6-(2-methoxyethoxy)-1H-indazol-3-yl]-1,2-oxazol-3-yl}benzamide]	170	6.3		
COCCOc1cc2[nH]nc(-c3cc(-c4ccc(C(=O)N5CCOCC5)cc4)no3)c2cc1F [A104, 5-fluoro-6-(2-methoxyethoxy)-3-{3-[4-(morpholine-4-carbonyl)phenyl]-1,2-oxazol-5-yl}-1H-indazole]	58	0.79		
COCCOc1cc2[nH]nc(-c3cc(-c4ccc(N=S5(=O)CCNCC5)cc4)no3)c2cc1F [A129, 1-[(4-{5-[5-fluoro-6-(2-methoxyethoxy)-1H-indazol-3-yl]-1,2-oxazol-3-yl}phenyl)imino]-1lambda6-thiomorpholin-1-one]	80	1.7		
COCCOc1cc2[nH]nc(-c3cn(-c4ccc(C(=O)N5Cc6ccncc6C5)cc4)nn3)c2cc1F [reference compound]			140	2.3
COCCOc1cc2[nH]nc(-c3cc(-c4ccc(C(=O)N5CCN(C6CCOC6)CC5)cc4)no3)c2cc1F (stereo not drawn) [A175, 5-fluoro-6-(2-methoxyethoxy)-3-(3-{4-[4-(oxolan-3-yl)piperazine-1-carbonyl]phenyl}-1,2-oxazol-5-yl)-1H-indazole]	43	0.86		
COCCOc1cc2[nH]nc(-c3cc(-c4ccc(C(=O)N5CCN(C)CC5)cc4)on3)c2cc1F [A113, (4-{3-[5-fluoro-6-(2-methoxy-ethoxy)-1H-indazol-3-yl]-isoxazol-5-yl}-phenyl)-(4-methyl-piperazin-1-yl)-methanone]	82	2.6		
COCCOc1cc2[nH]nc(-c3cc(-c4ccc(C(=O)N5CCN([C@@H]6CCOC6)CC5)cc4)no3)c2cc1F [A185, 5-fluoro-6-(2-methoxyethoxy)-3-[3-(4-{4-[(3R)-oxolan-3-yl]piperazine-1-carbonyl}phenyl)-1,2-oxazol-5-yl]-1H-indazole]	60	1.1		
COCCOc1cc2[nH]nc(-c3cc(-c4ccc(C(=O)N5CCC6(CCOCC6)C5)cc4)no3)c2cc1F [A159, 2-(4-{5-[5-fluoro-6-(2-methoxyethoxy)-1H-indazol-3-yl]-1,2-oxazol-3-yl}benzoyl)-8-oxa-2-azaspiro[4.5]decane]	21	0.29		
COCCOc1cc2[nH]nc(-c3cn(-c4ccc(C(=O)N5CCN(C6COC6)CC5)cc4)nn3)c2cc1F [reference compound]			790	7.8
COCCOc1cc2[nH]nc(-c3cc(-c4ccc(C(=O)N5CCC[C@H]5C(C)(C)O)cc4)no3)c2cc1F [A5, 2-[(2S)-1-(4-{5-[5-fluoro-6-(2-methoxyethoxy)-1H-indazol-3-yl]-1,2-oxazol-3-yl}benzoyl)pyrrolidin-2-yl]propan-2-ol]	20	0.55		
COCCOc1cc2[nH]nc(-c3cn(-c4ccc(C(=O)N5C[C@H]6COC[C@H]6C5)cc4)nn3)c2cc1F [reference compound]			470	5
COCCOc1cc2[nH]nc(-c3cc(-c4ccc(C(=O)N5CCC[C@H]5CO)cc4)no3)c2cc1F [drawing 57, reference compound]			910	8.5
COCCOc1cc2[nH]nc(-c3cc(-c4ccc(C(=O)N5CCOC[C@H]5C)cc4)no3)c2cc1F [A114, 5-fluoro-6-(2-methoxyethoxy)-3-(3-{4-[(3R)-3-methylmorpholine-4-carbonyl]phenyl}-1,2-oxazol-5-yl)-1H-indazole]	56	0.91		
COCCOc1cc2[nH]nc(-c3cn(-c4ccc(C(=O)N5CCC[C@H]5C(C)(C)O)cc4)nn3)c2cc1F [reference compound]			79	2.5
COCCOc1cc2[nH]nc(-c3cc(-c4ccc(C(=O)N5CC(N6CCN(C7COC7)CC6)C5)cc4)no3)c2cc1F [A197, 5-fluoro-6-(2-methoxyethoxy)-3-[3-(4-{3-[4-(oxetan-3-yl)piperazin-1-yl]azetidine-1-carbonyl}phenyl)-1,2-oxazol-5-yl]-1H-indazole]	87	1.9		
COCCOc1cc2[nH]nc(-c3cc(-c4ccc(C(=O)N5C[C@H]6COC[C@H]6C5)c(C)c4)no3)c2cc1F [A70, (4-{5-[5-fluoro-6-(2-methoxy-ethoxy)-1H-indazol-3-yl]-isoxazol-3-yl}-2-methyl-phenyl)-(cis)-tetrahydro-furo[3,4-c]pyrrol-5-yl-methanone]	81	2.1		
COCCOc1cc2[nH]nc(-c3cc(-c4ccc(C(=O)N5CCC6(CN(C)C6)C5)cc4)no3)c2cc1F [A160, 5-fluoro-6-(2-methoxyethoxy)-3-[3-(4-{2-methyl-2,6-diazaspiro[3.4]octane-6-carbonyl}phenyl)-1,2-oxazol-5-yl]-1H-indazole]	170	2.5		
CCOc1ccc(-c2cc(-c3n[nH]c4cc(OCCOC)c(F)cc34)on2)cn1 [A38, 3-[3-(6-ethoxypyridin-3-yl)-1,2-oxazol-5-yl]-5-fluoro-6-(2-methoxyethoxy)-1H-indazole]	4400	35		
COCCOc1cc2[nH]nc(-c3cc(-c4ccc(C(=O)N5Cc6cncnc6C5)cc4)no3)c2cc1F [A207, 5-fluoro-6-(2-methoxyethoxy)-3-[3-(4-{5H,6H,7H-pyrrolo[3,4-d]pyrimidine-6-carbonyl}phenyl)-1,2-oxazol-5-yl]-1H-indazole]	73	1		
COCCOc1cc2[nH]nc(-c3cc(-c4ccc(C(=O)N5CC6(C5)CS(=O)(=O)C6)cc4)no3)c2cc1F [A151, 6-(4-{5-[5-fluoro-6-(2-methoxyethoxy)-1H-indazol-3-yl]-1,2-oxazol-3-yl}benzoyl)-2lambda6-thia-6-azaspiro[3.3]heptane-2,2-dione]	240	0.71		
COCCOc1cc2[nH]nc(-c3cc(-c4ccc(OCCN5CCN(C)CC5)cc4)no3)c2cc1F [A133, 5-fluoro-6-(2-methoxyethoxy)-3-(3-{4-[2-(4-methylpiperazin-1-yl)ethoxy]phenyl}-1,2-oxazol-5-yl)-1H-indazole]	130	1		
[2H]C1([2H])N(C(=O)c2ccc(-c3cc(-c4n[nH]c5cc(OCCO)c(F)cc45)on3)cc2)C([2H])([2H])C([2H])([2H])N(C2COC2)C1([2H])[2H] [A234, 2-{[5-fluoro-3-(3-{4-[4-(oxetan-3-yl)(2,2,3,3,5,5,6,6-^2H8)piperazine-1-carbonyl]phenyl}-1,2-oxazol-5-yl)-1H-indazol-6-yl]oxy}ethan-1-ol]	170	0.9		
COCCOc1cc2[nH]nc(-c3cc(-c4ccc(C(=O)N5CCO[C@H](C)C5)cc4)no3)c2cc1F [A180, 5-fluoro-6-(2-methoxyethoxy)-3-(3-{4-[(2R)-2-methylmorpholine-4-carbonyl]phenyl}-1,2-oxazol-5-yl)-1H-indazole]	66	2		
COCCOc1cc2[nH]nc(-c3cc(-c4ccc(C(=O)N5CC(O)(c6ccncc6)C5)cc4)no3)c2cc1F [A206, 1-(4-{5-[5-fluoro-6-(2-methoxyethoxy)-1H-indazol-3-yl]-1,2-oxazol-3-yl}benzoyl)-3-(pyridin-4-yl)azetidin-3-ol]	79	0.67		
COCCOc1cc2[nH]nc(-c3cc(-c4ccc(S(C)(=O)=O)cc4)no3)c2cc1Cl [A15, 5-chloro-3-[3-(4-methanesulfonylphenyl)-1,2-oxazol-5-yl]-6-(2-methoxyethoxy)-1H-indazole]	240	5.8		
